Experimental data as given in US20180318197A1, “SOYASAPONIN-CONTAINING COMPOSITION FOR SKIN WHITENING” (AMOREPACIFIC CORPORATION, priority 2015, published 2018).

Assays:
[1] = tested on: Murine melanoma (B16) cells; assay: Evaluation of the degree of melanin production inhibition in α-MSH-stimulated B16 cells; assay type: cell-based; details: B16 cells with α-MSH; 12.5, 25, 50 or 100 μM soyasaponin Aa; 3 days; absorbance at 490 nm
Experimental: Murine melanoma (B16) cells purchased from the Korean Cell Line Bank were seeded into each well of a 12-well plate (5×10^4 cells/well) in DMEM (Dulbecco's modified eagle's medium) containing FBS (fetal calf serum) or a medium having growth rates equivalent to or higher than those in the DMEM. The cells were cultured at 37° C. with 5% CO2 until they reached about 80% confluency. After cultivation, the medium was removed and samples were replaced in medium diluted with 12.5, 25, 50 or 100 μM of soyasaponin Aa, or 100 ppm (corresponding to 700 μM) of kojic acid, and then cultured at 37° C. with 5% CO2 for 3 days. At this time, α-MSH (melanin stimulation hormone), which is a substance that allows B16 cells to better form melanin during cultivation, was included together in the medium of the other treatment groups except for the untreated control group. […] The concentration range of the samples was determined through toxicity tests. […] The obtained solution was measured for the absorbance at 490 nm using an ELISA reader (Synergy 2, BioTek. USA), and the amount of protein was determined by the Bradford assay, and then the amount of melanin per constant number of cells or the amount of melanin per constant amount of protein was estimated. […]

[2] = target: T1, melanocyte-derived tyrosinase (melan-a cell extract) (Mus musculus, UniProt P11344); assay: Cell extract tyrosinase inhibitory activity (DOPA to dopachrome colorimetric reaction); assay type: biochemical; details: pH 6.8, substrate DOPA, absorbance at 475 nm
T1 construct: melan-a cell extract mixture; endogenous in cells; host or cells: melan-a cells (cell extract)
T1 sequence (P11344 19-533): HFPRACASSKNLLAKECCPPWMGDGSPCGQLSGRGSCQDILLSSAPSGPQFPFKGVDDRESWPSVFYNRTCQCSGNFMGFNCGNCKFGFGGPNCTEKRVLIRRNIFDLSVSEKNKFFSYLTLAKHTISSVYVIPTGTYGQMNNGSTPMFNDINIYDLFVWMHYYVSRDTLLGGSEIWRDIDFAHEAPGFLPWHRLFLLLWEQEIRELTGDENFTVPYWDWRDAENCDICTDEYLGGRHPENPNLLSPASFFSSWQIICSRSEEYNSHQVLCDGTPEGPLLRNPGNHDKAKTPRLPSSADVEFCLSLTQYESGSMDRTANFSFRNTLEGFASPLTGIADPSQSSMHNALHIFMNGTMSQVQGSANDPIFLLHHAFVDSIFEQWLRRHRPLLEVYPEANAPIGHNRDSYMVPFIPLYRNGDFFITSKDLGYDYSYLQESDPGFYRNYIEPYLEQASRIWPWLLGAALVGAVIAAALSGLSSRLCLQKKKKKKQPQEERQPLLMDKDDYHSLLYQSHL
Experimental: Tyrosinase is an important enzyme that regulates the first step that is performed to produce melanin in the process of pigmentation, and tyrosinase inhibitory activity is known to be an important efficacy mechanism for whitening. Therefore, in this test example, the ability of soyasaponin to inhibit the activity of tyrosinase was evaluated using a method for inhibiting the activity of cell extract tyrosinase. The method for evaluating the cell extract tyrosinase inhibitory activity is based on a phenomenon that melanocyte-derived tyrosinase causes a colorimeteric reaction by allowing substrate DOPA (3,4-dihydroxyphenylalanine; colorless) to form dopacrome (reddish brown).
Specific experimental methods are as follows. Kojic acid as a positive control and soyasaponin Aa as an evaluation material were prepared by concentrating four times the concentration to be evaluated. Then, the reaction mixture (pH 6.8, 0.1M potassium phosphate buffer, melan-a cell extract mixture) was prepared in a 96 well plate. Since there may be colors depending on the evaluation material, a reaction mixture containing no cell extract liquid was made into a vehicle for background removal. […] Absorbance was measured at 475 nm using an ELISA reader (Synergy2, BioTek, USA) at intervals of 10 minutes until sufficient colorimeteric reaction had occurred.

- activity of tyrosinase (FIG. 5) [2]: effectively inhibited
SMILES: CC(=O)O[C@@H]1[C@@H](OC(C)=O)[C@H](O[C@@H]2[C@@H](O)[C@H](O[C@@H]3[C@H](O)C(C)(C)C[C@H]4C5=CC[C@@H]6[C@@]7(C)CC[C@H](O[C@@H]8O[C@H](C(=O)O)[C@@H](O)[C@H](O)[C@H]8O[C@@H]8O[C@H](CO)[C@H](O)[C@H](O)[C@H]8O[C@@H]8O[C@H](CO)[C@@H](O)[C@H](O)[C@H]8O)[C@](C)(CO)[C@@H]7CC[C@@]6(C)[C@]5(C)CC[C@@]34C)OC[C@@H]2O)OC[C@H]1OC(C)=O [soyasaponin Aa]
- synthesis of melanin (intracellular FIG. 3 and extracellular FIG. 4) [1]: effectively inhibited
